Data reported in paper PMC6151700, “Novel FXa Inhibitor Identification through Integration of Ligand- and Structure-Based Approaches” (Molecules : A Journal of Synthetic Chemistry and Natural …, 2017).
Like-named read-outs stand apart in the source and are kept apart here.

Assays:
[1] = tested on: human plasma; assay: In vitro coagulation assay, activated partial thromboplastin time (aPTT); conditions: 0.1 to 10 nM
Description: (§1) PT and aPTT assays were performed on an ACLTop (Instrumentation Laboratory) coagulation instrument. Recombiplastin 2G and aPTT-SP liquid were used according to standard procedures. Increasing concentrations of inhibitor ranging from 0.1 to 10 nM or solvent were added to human plasma and incubated for 10 min at 37 °C. Clotting times were measured and compared with those from the appropriate control plasma.

[2] = tested on: tumor cell line; conditions: assayed 53 times, ChEMBL database ref 46, 47; cited from earlier work
[3] = target: T1, human FXa (Homo sapiens, UniProt P00742); assay: Inhibition of FXa in vitro (SensoLyte Rh110 Factor Xa Assay Kit, fluorometric); format: biochemical; conditions: for Emax at 0.01 µM: at 10 nM, read-out: maximal effect of FXa inhibition
T1 construct: purchased Anaspec, Fremont, CA, USA
Description: The selected compounds were measured in vitro for their factor Xa inhibition using chromogenic substrates. In a first trial the 30 compounds obtained from the developmental therapeutic program at NCI were dissolved in dimethyl sulfoxide (DMSO) at a concentration of 100 mM and then diluted in DMSO to 100 μM. The enzymatic assay was prepared according to manufacturer’s instructions (SensoLyte® Rh110 Factor Xa Assay Kit *Fluorometric*, Anaspec, Fremont, CA, USA). Inhibition control 1 mM was diluted 1:10 with the prepared buffer 1X obtaining the 0.1 mM inhibition control. The reagents containing compound dilutions, buffer and enzyme were mixed, centrifuged, and incubated for 30 min at 37 °C in 96-well microtiter plates. The enzyme reaction was initiated by adding appropriate substrate (FXa, S-2222). The 96-well plate for fluorescence was prepared with 40 μL of enzyme and 1 μL of each compound. To initiate the enzymatic reaction 50 μL of the factor Xa substrate was added to each well and the plate was read with a fluorescence microplate reader FLx800 (Biotek Inc., Winooski, VT, USA) programmed to read continuously for 30 min at 37 °C, at a wavelength of Ex/Em 490 nm/520 nm. […] The data obtained was analyzed with Prism v.7 (GraphPad Inc., La Jolla, CA, USA). In the second trial, the ten filtered and selected compounds) were prepared to span four different concentrations: 0.1–10 nM. The IC50 was calculated from the mean of triplicates from a dilution series of the compound with Prism v.7 (GraphPad Inc., La Jolla, CA, USA).

[4] = tested on: human plasma; assay: In vitro coagulation assay, prothrombin time (PT); conditions: up to 10 nM
Description: as §1

[5] = read-out: FXa Activity Inhibition >50% at 1 μM
[6] = read-out: FXa Activity Inhibition >50% at 10 μM

T1 sequence (P00742 235-488 limits assumed): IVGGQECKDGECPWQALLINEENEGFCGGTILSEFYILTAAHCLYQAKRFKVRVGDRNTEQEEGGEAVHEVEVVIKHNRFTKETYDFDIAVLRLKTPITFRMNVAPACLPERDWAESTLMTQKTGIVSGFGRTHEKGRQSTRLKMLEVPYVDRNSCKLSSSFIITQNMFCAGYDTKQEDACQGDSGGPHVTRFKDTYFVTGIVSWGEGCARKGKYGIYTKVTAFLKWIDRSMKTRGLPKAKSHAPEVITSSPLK
T1 sequence (P00742 41-179 partner limits assumed): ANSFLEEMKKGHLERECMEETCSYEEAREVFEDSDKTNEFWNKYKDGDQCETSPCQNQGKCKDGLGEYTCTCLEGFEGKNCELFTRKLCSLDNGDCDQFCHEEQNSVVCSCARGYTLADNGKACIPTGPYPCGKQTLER

| SMILES | FXa Activity Inhibition >50% at 1 μM [3] | FXa Activity Inhibition >50% at 10 μM [3] | other results |
| --- | --- | --- | --- |
| CC1=C(C(=O)CC(=O)C(=O)Nc2ccccc2)Sc2ccccc2N1 [Compound 5, 4-(3-methyl-4H-1,4-benzothiazin-2-yl)-2,4-dioxo-N-phenylbutanamide] | – | – | aPTT [1]: prolonged only aPTT; tumor cell line growth inhibition [2]: inactive in all of them; Emax at 0.01 µM [3]: 58%; inhibition at 1 µM ([3]; at 1 μM, read-out: FXa inhibition): > 50%; IC50 ([3]; dose response curves, human FXa): 2.02 nM; inhibition at 1 µM [3, 5]: > 50%; inhibition at 10 µM [3, 6]: > 50%; PT [4]: without effect on PT |
| c1ccc(Cc2[nH]nc(-c3n[nH]c(Cc4ccccc4)c3-c3ccccc3)c2-c2ccccc2)cc1 [Compound 12] | (−) (FXa Activity Inhibition >50% at 1 μM) | (+) (FXa Activity Inhibition >50% at 10 μM) | – |
| Cc1ccc(NC(=O)CCc2nnc3s/c(=C\c4cccc([N+](=O)[O-])c4)c(=O)n23)cc1 [Compound 3] | (−) (FXa Activity Inhibition >50% at 1 μM) | (+) (FXa Activity Inhibition >50% at 10 μM) | – |
| O=C(CC(=O)C1=CNc2ccccc2S1)C(=O)Nc1ccc(Cl)cc1 [Compound 23] | (−) (FXa Activity Inhibition >50% at 1 μM) | (+) (FXa Activity Inhibition >50% at 10 μM) | – |
| NC(=O)N/N=C(/Cc1nc2ccc(C(=O)c3ccccc3)cc2[nH]c1=O)C(=O)Nc1ccc(Br)cc1 [Compound 24] | (−) (FXa Activity Inhibition >50% at 1 μM) | (+) (FXa Activity Inhibition >50% at 10 μM) | – |
| CS(=O)(=O)N1C[C@H](C(=O)Nc2ccc(Cl)cc2)[C@@H](C(=O)Nc2ccc(-n3ccccc3=O)cc2F)C1 [Compound 8] | – | – | inhibition at 1 µM ([3]; 1 µM, Table S1, read-out: FXa Activity Inhibition >50% at 1µM): < 50%; inhibition at 10 µM ([3]; 10 µM, Table S1, read-out: FXa Activity Inhibition >50% at 10µM): < 50% |
| Cc1cc(Cl)ccc1NC(=O)CC1SC(=NC(=O)c2ccccc2Cl)NC1=O (stereo not shown) [Compound 22] | (−) (FXa Activity Inhibition >50% at 1 μM) | (+) (FXa Activity Inhibition >50% at 10 μM) | – |
| O=C(C[n+]1ccn(CC(OCc2ccc(Cl)cc2Cl)c2ccc(Cl)cc2Cl)c1)c1ccc(F)cc1.[Cl-] (stereo not shown) [Compound 10] | (−) (FXa Activity Inhibition >50% at 1 μM) | (+) (FXa Activity Inhibition >50% at 10 μM) | – |
| CCOc1ccc(NC(=O)CC2SC(=Nc3ccc(C)cc3)NC2=O)cc1 (stereo not shown) [Compound 9] | (−) (FXa Activity Inhibition >50% at 1 μM) | (+) (FXa Activity Inhibition >50% at 10 μM) | – |
| O=C(NCc1ccc2ccc3cccnc3c2n1)c1ccc[n+](Cc2ccccc2)c1 [Compound 2] | (−) (FXa Activity Inhibition >50% at 1 μM) | (+) (FXa Activity Inhibition >50% at 10 μM) | – |
| O=C(NC[C@H]1CN(c2ccc(N3CCOCC3=O)cc2)C(=O)O1)c1ccc(Cl)s1 [Rivaroxaban, reference compound] | – | – | aPTT [1]: simultaneously prolonged aPTT and PT in a dose-dependent manner; Emax at 0.01 µM [3]: 81%; inhibition at 1 µM [3, 5]: > 50%; inhibition at 10 µM [3, 6]: > 50%; PT [4]: simultaneously prolonged aPTT and PT in a dose-dependent manner |
